As a reminder, the boiling point is the temperature at which the vapour pressure of the liquid equals the pressure above it.

The format of data set [1] is physicochemical. On the procedure:
(§1) A 1-L four-necked flask was charged with 282.6 g of 1,1,1,3,5,7,7,7-octamethyltetrasiloxane and 1.4 mg of chloroplatinic acid. An ethylene gas was blown into the mixture under stirring, and a hydrosilylation reaction took place while the temperature was held at […]. The reaction was monitored by gas chromatography. When it was observed that the proportion of a target reached 95% or more, the reaction was terminated. Distillation under reduced pressure (120° C., 10 mmHg) was performed to obtain 3,5-diethyl-1,1,1,3,5,7,7,7-octamethyltetrasiloxane as the target. The boiling point was 227° C. and the viscosity was 2.2 mm^2/s.

Data set [2] in a line: Solubility test of ethylhexyl methoxycinnamate in silicones. In kind it is physicochemical. Further details: key to dissolution state: “good” indicates dissolution; “poor” indicates separation. Conditions: for dissolution state: shaken 24 hours, observed after 12 days at room temperature. On the procedure: Ethylhexyl methoxycinnamate (sometimes referred to as OMC) and each silicone (sometimes referred to as Sx) weighed at a mass ratio shown in Table 1 were shaken and mixed at room temperature for 24 hours. After 12 days at room temperature, the dissolution state was observed. For each dissolution state, “good” indicates dissolution, and “poor” indicates separation.

The nature of data set [3]: Solubility of oily component solid at 25° C. and crystallization test (stearyl alcohol). In kind it is physicochemical. Further details: key to dissolution state: excellent: “Excellent” indicates uniform dissolution; “good” indicates dispersion; “poor” indicates separation. Conditions: for average penetration score: Stearyl alcohol:silicone 1:9, solidified at 25° C. for 2 days, 1/4 cone, after 5 seconds, average of five, larger value means softer; for dissolution state: Stearyl alcohol:silicone mass ratio 1:9, heated at 105° C. for 20 minutes, visual observation. On the procedure: (§2) Oily components being solid at 25° C. and silicones weighed at a mass ratio of 1:9 were heated at 105° C. for 20 minutes to observe the dissolution state. Then, each heated mixture solution was placed in an aluminum cup, allowed to stand at 25° C. for 2 days, and solidified. The penetration score of the solid was measured with a rheometer. The dissolution states according to the visual observation during the heating were shown as follows. “Excellent” indicates uniform dissolution, “good” indicates dispersion, and “poor” indicates separation.
(§3) Moreover, in the rheometer measurement, an automatic cone-penetration measurement test apparatus RPM-101 (manufactured by RIGOSHA CO., LTD.) was used, a ¼ cone was set, and a penetration score after 5 seconds was measured five times. […] A larger value means a softer material.

Data set [4] in a line: Solubility of oily component solid at 25° C. and crystallization test (polyethylene). To be noted: for average penetration score: Polyethylene:silicone 1:9, solidified at 25° C. for 2 days, 1/4 cone, after 5 seconds, average of five, larger value means softer; for dissolution state: Polyethylene:silicone mass ratio 1:9, heated at 105° C. for 20 minutes, visual observation. The arrangement: key to dissolution state: excellent: “Excellent” indicates uniform dissolution; “good” indicates dispersion; “poor” indicates separation. Type of data set: physicochemical. The protocol: as §2, §3

A short description of data set [5]: Viscosity (kinematic viscosity, Ostwald viscometer). In kind it is physicochemical. On the procedure: Further, since the viscosity of the organosiloxane in the present invention is less than 5 mm^2/s (25° C.), favorable applicability and spreadability are sensed in the same manner as in cases of using decamethylcyclopentasiloxane having a viscosity of 4 mm^2/s (25° C.), or the like. Additionally, the feeling on use is favorable without provoking considerable sticky feeling. If the viscosity is 5 mm^2/s (25° C.) or higher, this causes poor spreading, sticky feeling is provoked, and the feeling on use is poor. Note that the viscosity (kinematic viscosity) values are measured using an Ostwald viscometer.
as §1

The conditions of data set [6]: known value given for comparison; cited from earlier work.

Where two headings read alike, the source gives them in different places.

In data set [1], `CC[Si](C)(O[Si](C)(C)C)O[Si](C)(CC)O[Si](C)(C)C` (centres unmarked) [Sx of Production Example 1, 3,5-Diethyl-1,1,1,3,5,7,7,7-octamethyltetrasiloxane] displayed a boiling point of 227 °C. Besides, the dissolution state result in data set [2] (Ratio of OMC:Sx 1:1 (mass)) is “good”; in data set [2] (Ratio of OMC:Sx 4:6 (mass)) it was “good”; in data set [3] it was “excellent”; in data set [4], “excellent”. The “Dissolution of ethylhexyl methoxycinnamate compared with other silicones” value in data set [2] (versus KF-96L-1cs, KF-96L-1.5cs, KF-96L-2cs, TMF-1.5, KF-995, D6) is given as “dissolved ethylhexyl methoxycinnamate to higher extent”. Also, the figures for the average penetration score in data set [3] and in data set [4] were 49.5 and 33.7, respectively. The compound also came in with a viscosity in data set [5] of 2.2 mm^2/s.

Regarding `C[Si](C)(C)O[Si](C)(C)O[Si](C)(C)C` [KF-96L-1cs, octamethyltrisiloxane], the dissolution state result in data set [2] (Ratio of OMC:Sx 1:1 (mass)) was “poor”; in data set [3], “excellent”; in data set [4], “good”. The average penetration score was found to be 31.7 in data set [3] and 30.7 in data set [4].

On to `C[Si](C)(C)O[Si](C)(C)O[Si](C)(C)O[Si](C)(C)C` [KF-96L-1.5cs, decamethyltetrasiloxane], for which, in data set [2] (Ratio of OMC:Sx 1:1 (mass)), the dissolution state entry is recorded as “poor”.

Regarding undecamethylpentasiloxane [KF-96L-2cs], the dissolution state entry is “poor” in data set [2] (Ratio of OMC:Sx 1:1 (mass)), “excellent” in data set [3] and “Poor” in data set [4]. Besides, the values for the average penetration score in data set [3] and in data set [4] were 34.6 and 18.6, respectively.

On to `C[Si]1(C)O[Si](C)(C)O[Si](C)(C)O[Si](C)(C)O[Si](C)(C)O[Si](C)(C)O1` [Example D6, dodecamethylhexasiloxane], for which the average penetration score in data set [3] came to 31.5; in data set [4], 21.0. In addition, the boiling point in data set [6] is 245 °C.

With `C[Si]1(C)O[Si](C)(C)O[Si](C)(C)O[Si](C)(C)O[Si](C)(C)O1` [D5:KF-995, decamethylpentasiloxane], the average penetration score worked out at 34.4 in data set [3] and 22.4 in data set [4]. In addition, in data set [6], the boiling point is 210 °C.
